Structure (SMILES)	melting point [°C]
CC(C)(C)c1cc(NC(=O)c2cncc3cc(Oc4cc(N)ncn4)ccc23)n(-c2ccc(F)cc2)n1 [Example 94, 7-(6-Amino-pyrimidin-4-yloxy)-isoquinoline-4-carboxylic acid [5-tert-butyl-2-(4-fluoro-phenyl)-2H-pyrazol-3-yl]-amide]	124 to 126
CNc1cc(Oc2ccc3c(C(=O)Nc4ccc(N5CCOCC5)c(C(F)(F)F)c4)cccc3c2)ncn1 [Example 40, 6-(6-Methylamino-pyrimidin-4-yloxy)-naphthalene-1-carboxylic acid (4-morpholin-4-yl-3-trifluoromethyl-phenyl)-amide]	156 to 157
NC(=O)c1cc(Oc2ccc3c(C(=O)Nc4cccc(C(F)(F)F)c4)cccc3c2)ccn1 [Example 66, 4-[5-(3-Trifluoromethyl-phenylcarbamoyl)-naphthalen-2-yloxy]-pyridine-2-carboxylic acid amide]	117 to 120
O=C(Nc1cccc(C(F)(F)F)c1)c1cccc2cc(Oc3cc(CCl)ncn3)ccc12 [Example 53, 6-(6-Chloromethyl-pyrimidin-4-yloxy)-naphthalene-1-carboxylic acid (3-trifluoromethyl-phenyl)-amide]	178 to 181
CNc1cc(Oc2ccc3c(C(=O)Nc4cccc(C(F)(F)F)c4)cncc3c2)ncn1 [Example 96, 7-(6-Methylamino-pyrimidin-4-yloxy)-isoquinoline-4-carboxylic acid (3-trifluoromethyl-phenyl)-amide]	205 to 208
Nc1cc(Sc2ccc3c(C(=O)Nc4ccc(F)c(C(F)(F)F)c4)cccc3c2)ncn1 [Example 57, 6-(6-Amino-pyrimidin-4-ylsulfanyl)-naphthalene-1-carboxylic acid (4-fluoro-3-trifluoromethyl-phenyl)-amide]	221
CN(C)Cc1cc(Oc2ccc3c(C(=O)Nc4cccc(C(F)(F)F)c4)cccc3c2)ncn1 [Example 55, 6-(6-Dimethylaminomethyl-pyrimidin-4-yloxy)-naphthalene-1-carboxylic acid (3-trifluoromethyl-phenyl)-amide]	180 to 181
COC(=O)Nc1nccc(Oc2ccc3c(C(=O)Nc4cccc(C(F)(F)F)c4)cccc3c2)n1 [Example 19, 6-(2-Methoxycarbonylamino-pyrimidin-4-yloxy)-naphthalene-1-carboxylic acid (3-trifluoromethyl-phenyl)-amide]	199 to 200
COC(=O)Nc1cc(Oc2ccc3c(C(=O)Nc4cccc(C(F)(F)F)c4)cccc3c2)ccn1 [Example 69, {4-[5-(3-Trifluoromethyl-phenylcarbamoyl)-naphthalen-2-yloxy]-pyridin-2-yl}-carbamic acid methyl ester]	230 to 232
CNC(=O)c1cc(Oc2ccc3c(C(=O)Nc4cccc(C(F)(F)F)c4)cccc3c2)ccn1 [Example 65, 4-[5-(3-Trifluoromethyl-phenylcarbamoyl)-naphthalen-2-yloxy]-pyridine-2-carboxylic acid methylamide]	175 to 177
CN(C)CCNC(=O)c1cc(Oc2ccc3c(C(=O)Nc4cccc(C(F)(F)F)c4)cccc3c2)ccn1 [Example 67, 4-[5-(3-Trifluoromethyl-phenylcarbamoyl)-naphthalen-2-yloxy]-pyridine-2-carboxylic acid (2-dimethylamino-ethyl)-amide]	80 to 82
CC(C)c1ccc(-n2nc(C(C)(C)C)cc2NC(=O)c2cncc3cc(Oc4cc(N)ncn4)ccc23)cc1 [Example 93, 7-(6-Amino-pyrimidin-4-yloxy)-isoquinoline-4-carboxylic acid [5-tert-butyl-2-(4-isopropyl-phenyl)-2H-pyrazol-3-yl]-amide]	131 to 133
Nc1cc(Sc2ccc3c(C(=O)Nc4cccc(C(F)(F)F)c4)cccc3c2)ncn1 [Example 58, 6-(6-Amino-pyrimidin-4-ylsulfanyl)-naphthalene-1-carboxylic acid (3-trifluoromethyl-phenyl)-amide]	205
CNc1cc(Oc2ccc3c(C(=O)Nc4ccc(F)c(C(F)(F)F)c4)cncc3c2)ncn1 [Example 95, 7-(6-Methylamino-pyrimidin-4-yloxy)-isoquinoline-4-carboxylic acid (4-fluoro-3-trifluoromethyl-phenyl)-amide]	255 to 257
CNCc1cc(Oc2ccc3c(C(=O)Nc4cccc(C(F)(F)F)c4)cccc3c2)ncn1 [Example 54, 6-(6-Methylaminomethyl-pyrimidin-4-yloxy)-naphthalene-1-carboxylic acid (3-trifluoromethyl-phenyl)-amide]	141 to 143
Nc1cc(Sc2ccc3c(C(=O)Nc4cccc(OC(F)(F)F)c4)cccc3c2)ncn1 [Example 61, 6-(6-Amino-pyrimidin-4-ylsulfanyl)-naphthalene-1-carboxylic acid (3-trifluoromethoxy-phenyl)-amide]	197 to 199
N#Cc1cc(Oc2ccc3c(C(=O)Nc4cccc(C(F)(F)F)c4)cccc3c2)ncn1 [Example 43, 6-(6-Cyano-pyrimidin-4-yloxy)-naphthalene-1-carboxylic acid (3-trifluoromethyl-phenyl)-amide]	167
CC(C)NC(=O)c1cc(Oc2ccc3c(C(=O)Nc4cccc(C(F)(F)F)c4)cccc3c2)ncn1 [Example 51, 6-[5-(3-Trifluoromethyl-phenylcarbamoyl)-naphthalen-2-yloxy]-pyrimidine-4-carboxylic acid isopropylamide]	205 to 208
Nc1nccc(CCc2ccc3c(C(=O)Nc4cccc(C(F)(F)F)c4)cccc3c2)n1 [Example 70, 6-[2-(2-Amino-pyrimidin-4-yl)-ethyl]-naphthalene-1-carboxylic acid (3-trifluoromethyl-phenyl)-amide]	225 to 227
Nc1cc(Oc2ccc3c(C(=O)Nc4cccc(C(F)(F)F)c4)cccc3c2)ncn1 [Example 26, 6-(6-Amino-pyrimidin-4-yloxy)-naphthalene-1-carboxylic acid (3-trifluoromethyl-phenyl)-amide]	243 to 244
Nc1cc(Oc2ccc3c(C(=O)Nc4cccc(C(F)(F)F)c4)cccc3c2)ccn1 [Example 68, 6-(2-Amino-pyridin-4-yloxy)-naphthalene-1-carboxylic acid (3-trifluoromethyl-phenyl)-amide]	222 to 224
Nc1cc(Oc2ccc3c(C(=O)Nc4ccc(F)c(C(F)(F)F)c4)cccc3c2)ncn1	224 to 225
Nc1nc(Cl)cc(Oc2ccc3c(C(=O)Nc4cccc(C(F)(F)F)c4)cccc3c2)n1 [Example 13, 6-(2-Amino-6-chloro-pyrimidin-4-yloxy)-naphthalene-1-carboxylic acid (3-trifluoromethyl-phenyl)-amide]	234 to 236
CCCCOC(=O)c1cc(Oc2ccc3c(C(=O)Nc4cccc(C(F)(F)F)c4)cccc3c2)ccn1 [Example 64, 4-[5-(3-Trifluoromethyl-phenylcarbamoyl)-naphthalen-2-yloxy]-pyridine-2-carboxylic acid butyl ester]	128 to 130
Nc1cc(C#Cc2ccc3c(C(=O)Nc4cccc(C(F)(F)F)c4)cccc3c2)ncn1 [Example 71, 6-(6-Amino-pyrimidin-4-ylethynyl)-naphthalene-1-carboxylic acid (3-trifluoromethyl-phenyl)-amide]	217 to 220
